Experimental data from patent US3984432A, “Color photographic recording material” (priority 1973, dated 1976).

Assay: Absorption maximum after colour development in a photographic silver halide layer according to Use Example I
Assay type: physicochemical
Conditions: for Abs.max., first of two maxima (subsidiary maximum) / Abs.max., second of two maxima (absorption maximum): pyrazolone coupling agents
Method: The compounds of the formulae which follow are prepared according to methods which are in themselves known, from the corresponding 4-equivalentcoupling agents (the corresponding compounds with hydrogen in the position marked with *, in place of the substituents drawn). With regard to methods of manufacture, compare DT-OS or DT-AS 1,236,332, 2,043,271, 1,547,672 or 1,187,477. Next to the formula, the absorption maximum in nm is specified in each case (see footnote to Table I). ##SPC8##
*)After colour development of the coupling agents in a photographic silve
halide layer according to Use Example I
0.3 mmol of coupling agent of the formula (215) is dissolved in 2.0 ml of tricresyl phosphate/methylene chloride (3:7). The methylene chloride is evaporated off, 6.0 ml of an 8% strength aqueous solution of sodium isopropylnaphthalene-sulphonate, 20.0 ml of 6% strength gelatine solution and 3.4 ml of water are added and the mixture is adjusted to pH 6.5 and emulsified for 5 minutes by means of an ultrasonic apparatus with an output of 100 watt.
5.0 of coupling agent emulsion freshly treated with ultrasonics, 3.3 ml of silver bromide emulsion of pH 6.5, containing 1.4% of silver and 6.0% of gelatine, 2.0 ml of 1% strength aqueous solution of the hardener of the formula [formula] and 1.7 ml of water are mixed with one another and cast at 40°C on a substrated glass plate of size 13 cm × 18 cm. After solidifying at 10° C, the plate is dried in a drying cabinet with circulating air at 32° C.
A strip cut to 4.0 cm × 6.5 cm is exposed to 500 Lux/cm^2 under a step wedge for 2 seconds and is subsequently treated at 24° C as follows: […]

CCOP(=O)(CCCCCOc1cc(OCCCCCP(=O)(OCC)OCC)cc(C(=O)Nc2cccc(C(=O)NC3=NN(c4ccccc4)C(=O)C3)c2)c1)OCC [(226)]
Abs.max., first of two maxima (subsidiary maximum): 439 nm
Abs.max., second of two maxima (absorption maximum): 534 nm

CCCCC(CC)COP(=O)(CCCOc1ccc(C(=O)Nc2cccc(C(=O)NC3=NN(c4c(Cl)cc(Cl)cc4Cl)C(=O)C3)c2)c(OCCCP(=O)(OCC(CC)CCCC)OCC(CC)CCCC)c1)OCC(CC)CCCC (stereo not drawn) [(251)]
Abs.max., first of two maxima (subsidiary maximum): 436 nm
Abs.max., second of two maxima (absorption maximum): 540 nm

CCCCC(CC)COP(=O)(CCCOc1cccc(C(=O)Nc2cccc(C(=O)NC3=NN(c4ccccc4)C(=O)C3)c2)c1)OCC(CC)CCCC (stereo not drawn) [(225)]
Abs.max., first of two maxima (subsidiary maximum): 440 nm
Abs.max., second of two maxima (absorption maximum): 532 nm

CCCCC(CC)COP(=O)(CCCOc1cccc(C(=O)Nc2ccc(NC3=NN(c4ccccc4)C(=O)C3)cc2)c1)OCC(CC)CCCC (stereo not drawn) [(420)]
Abs.max., first of two maxima (subsidiary maximum): 428 nm
Abs.max., second of two maxima (absorption maximum): 529 nm

CCCCOP(=O)(CCCOc1ccc(C(=O)Nc2cccc(C(=O)NC3=NN(c4c(Cl)cc(Cl)cc4Cl)C(=O)C3)c2)c(OCCCP(=O)(OCCCC)OCCCC)c1)OCCCC [(248)]
Abs.max., first of two maxima (subsidiary maximum): 436 nm
Abs.max., second of two maxima (absorption maximum): 541 nm

Cc1ccc(C(=O)NCCCP2(=O)OCC(C)(C)CO2)cc1NC(=O)CC(=O)c1ccc(Cl)cc1 [(139)]
Abs.max. (single maximum): 441 nm

CCCCC(CC)COP(=O)(CCCNC(=O)c1ccc(Cl)c(NC(=O)CC(=O)c2ccccc2OC)c1)OCC(CC)CCCC (stereo not drawn) [(133)]
Abs.max. (single maximum): 436 nm

CCOP(=O)(CCCOc1cccc(NC(=O)c2ccc3ccccc3c2O)c1)OCC [(601)]
Abs.max. (single maximum): 704 nm

CCCCC(CC)COP(=O)(CCCOc1cccc(C(=O)Nc2cccc(NC(=O)NC3=NN(c4c(Cl)cc(Cl)cc4Cl)C(=O)C3)c2)c1)OCC(CC)CCCC (stereo not drawn) [(274)]
Abs.max., first of two maxima (subsidiary maximum): 430 nm
Abs.max., second of two maxima (absorption maximum): 546 nm

CCCCC(CC)COP(=O)(CCCOc1cccc(OCC(=O)Nc2cccc(C(=O)NC3=NN(c4c(C)cc(C)cc4Cl)C(=O)C3)c2)c1)OCC(CC)CCCC (stereo not drawn) [(271)]
Abs.max., first of two maxima (subsidiary maximum): 440 nm
Abs.max., second of two maxima (absorption maximum): 532 nm

CCCCOP(=O)(CCCOc1cc(OCCCP(=O)(OCCCC)OCCCC)cc(C(=O)Nc2cccc(C(=O)NC3=NN(c4cccc(Cl)c4)C(=O)C3)c2)c1)OCCCC [(255)]
Abs.max., first of two maxima (subsidiary maximum): 438 nm
Abs.max., second of two maxima (absorption maximum): 536 nm

CCOP(=O)(CCCOc1cccc(C(=O)Nc2cccc(C(=O)CC(=O)Nc3cc(C)ccc3OC)c2)c1)OCC [(112)]
Abs.max. (single maximum): 440 nm

CCCCOP(=O)(CCCOc1cccc(C(=O)Nc2cccc(NC3=NN(c4ccccc4)C(=O)C3)c2)c1)OCCCC [(418)]
Abs.max., first of two maxima (subsidiary maximum): 430 nm
Abs.max., second of two maxima (absorption maximum): 530 nm

CCOP(=O)(CCCOc1cc(OCCCP(=O)(OCC)OCC)cc(C(=O)Nc2ccc(C(=O)NC3=NN(c4c(Cl)cc(Cl)cc4Cl)C(=O)C3)cc2)c1)OCC [(208)]
Abs.max., first of two maxima (subsidiary maximum): 434 nm
Abs.max., second of two maxima (absorption maximum): 546 nm

CCOP(=O)(CCCCCOc1cc(OCCCCCP(=O)(OCC)OCC)cc(C(=O)Nc2ccc(C(=O)NC3=NN(c4c(Cl)cc(Cl)cc4Cl)C(=O)C3)cc2)c1)OCC [(212)]
Abs.max., first of two maxima (subsidiary maximum): 434 nm
Abs.max., second of two maxima (absorption maximum): 544 nm

CCCCOP(=O)(CCCOc1cccc(NC2=NN(c3cccc(Cl)c3)C(=O)C2)c1)OCCCC [(411)]
Abs.max., first of two maxima (subsidiary maximum): 428 nm
Abs.max., second of two maxima (absorption maximum): 532 nm

CCCCCCOP(=O)(OCCCCCC)c1ccc(NC(=O)c2cccc(NC(=O)CC(=O)c3ccc(Cl)cc3)c2)cc1 [(145)]
Abs.max. (single maximum): 449 nm

CCCCOP(=O)(CCCc1ccc(NC(=O)CC(=O)c2ccc(Cl)cc2)cc1)OCCCC [(125)]
Abs.max. (single maximum): 440 nm

CCCCOP(=O)(CCCOc1cccc(C(=O)Nc2cccc(C(=O)NC3=NN(c4c(Cl)cc(Cl)cc4Cl)C(=O)C3)c2)c1)OCCCC [(220)]
Abs.max., first of two maxima (subsidiary maximum): 434 nm
Abs.max., second of two maxima (absorption maximum): 544 nm

CCCCOP(=O)(CCCOc1cc(OCCCP(=O)(OCCCC)OCCCC)cc(C(=O)Nc2ccc(Cl)c(NC(=O)CC(=O)C(C)(C)C)c2)c1)OCCCC [(116)]
Abs.max. (single maximum): 444 nm

CCCCOP(=O)(CCCOc1cc(OCCCP(=O)(OCCCC)OCCCC)cc(C(=O)Nc2cccc(C(=O)NC3=NN(c4c(Cl)cc(OC)cc4Cl)C(=O)C3)c2)c1)OCCCC [(266)]
Abs.max., first of two maxima (subsidiary maximum): 436 nm
Abs.max., second of two maxima (absorption maximum): 540 nm

CCCCOP(=O)(CCCc1ccc(NC(=O)C(Cl)C(=O)c2ccccc2)cc1)OCCCC (stereo not drawn) [(147)]
Abs.max. (single maximum): 436 nm

CCCCOP(=O)(CCCOc1cccc(NC(=O)c2ccc3ccccc3c2O)c1)OCCCC [(602)]
Abs.max. (single maximum): 706 nm

CCOP(=O)(CCCCCOc1cc(OCCCCCP(=O)(OCC)OCC)cc(C(=O)NC2=NN(c3c(Cl)cc(Cl)cc3Cl)C(=O)C2)c1)OCC [(214)]
Abs.max., first of two maxima (subsidiary maximum): 432 nm
Abs.max., second of two maxima (absorption maximum): 540 nm

CCCCOP(=O)(CCCOc1cc(OCCCP(=O)(OCCCC)OCCCC)cc(C(=O)Nc2cccc(NC(=O)CC(=O)C(C)(C)C)c2)c1)OCCCC [(115)]
Abs.max. (single maximum): 435 nm

CCCCOP(=O)(CCCOc1cc(OCCCP(=O)(OCCCC)OCCCC)cc(C(=O)Nc2cccc(C(=O)NC3=NN(c4c(Cl)cc(Cl)cc4OC)C(=O)C3)c2)c1)OCCCC [(265)]
Abs.max., first of two maxima (subsidiary maximum): 436 nm
Abs.max., second of two maxima (absorption maximum): 537 nm

CCCCC(CC)COP(=O)(CCCOc1cccc(C(=O)Nc2cccc(C(=O)NC3=NN(c4c(Cl)cc(Cl)cc4Cl)C(=O)C3)c2)c1)OCC(CC)CCCC (stereo not drawn) [(219)]
Abs.max., first of two maxima (subsidiary maximum): 436 nm
Abs.max., second of two maxima (absorption maximum): 542 nm

CCOP(=O)(OCC)C(C)(C)NC(=O)c1cccc(NC(=O)c2cccc(NC(=O)CC(=O)c3ccccc3)c2)c1 [(107)]
Abs.max. (single maximum): 444 nm

CCCCOP(=O)(CCCOc1cccc(C(=O)Nc2cccc(C(=O)NC3=NN(c4ccc(S(C)(=O)=O)cc4)C(=O)C3)c2)c1)OCCCC [(275)]
Abs.max., first of two maxima (subsidiary maximum): 440 nm
Abs.max., second of two maxima (absorption maximum): 538 nm

CCCCOP(=O)(CCCOc1cccc(NC2=NN(c3c(Cl)cc(Cl)cc3Cl)C(=O)C2)c1)OCCCC [(409)]
Abs.max., first of two maxima (subsidiary maximum): 426 nm
Abs.max., second of two maxima (absorption maximum): 530 nm

CCCCOP(=O)(CCCOc1cc(OCCCP(=O)(OCCCC)OCCCC)cc(C(=O)Nc2cccc(NC3=NN(c4c(Cl)cc(Cl)cc4Cl)C(=O)C3)c2)c1)OCCCC [(424)]
Abs.max., first of two maxima (subsidiary maximum): 427 nm
Abs.max., second of two maxima (absorption maximum): 532 nm

CCOP(=O)(CCCc1ccc(NC(=O)CC(=O)c2ccccc2)cc1)OCC [(101)]
Abs.max. (single maximum): 437 nm

CC(C)OP(=O)(CCCOc1cccc(C(=O)Nc2cccc(C(=O)NC3=NN(c4c(Cl)cc(Cl)cc4Cl)C(=O)C3)c2)c1)OC(C)C [(232)]
Abs.max., first of two maxima (subsidiary maximum): 434 nm
Abs.max., second of two maxima (absorption maximum): 541 nm

CC(C)OP(=O)(CCCCCOc1cc(OCCCCCP(=O)(OC(C)C)OC(C)C)cc(C(=O)Nc2cccc(C(=O)NC3=NN(c4c(Cl)cc(Cl)cc4Cl)C(=O)C3)c2)c1)OC(C)C [(243)]
Abs.max., first of two maxima (subsidiary maximum): 434 nm
Abs.max., second of two maxima (absorption maximum): 544 nm

CC(C)OP(=O)(CCCCCOc1cccc(C(=O)Nc2cccc(C(=O)NC3=NN(c4c(Cl)cc(Cl)cc4Cl)C(=O)C3)c2)c1)OC(C)C [(245)]
Abs.max., first of two maxima (subsidiary maximum): 434 nm
Abs.max., second of two maxima (absorption maximum): 542 nm

CCCCC(CC)COP(=O)(CCCOc1cc(OCCCP(=O)(OCC(CC)CCCC)OCC(CC)CCCC)cc(C(=O)Nc2cccc(C(=O)NC3=NN(c4c(C)cc(C)cc4Cl)C(=O)C3)c2)c1)OCC(CC)CCCC (stereo not drawn) [(263)]
Abs.max., first of two maxima (subsidiary maximum): 440 nm
Abs.max., second of two maxima (absorption maximum): 534 nm

CCOP(=O)(CCCCCOc1cccc(C(=O)Nc2cccc(C(=O)NC3=NN(c4c(Cl)cc(Cl)cc4Cl)C(=O)C3)c2)c1)OCC [(230)]
Abs.max., first of two maxima (subsidiary maximum): 434 nm
Abs.max., second of two maxima (absorption maximum): 544 nm

CCCCOP(=O)(CCCOc1cccc(C(=O)Nc2cccc(C(=O)CC(=O)Nc3cc(C)ccc3OC)c2)c1)OCCCC [(121)]
Abs.max. (single maximum): 434 nm

CCCCOP(=O)(CCCOc1cc(OCCCP(=O)(OCCCC)OCCCC)cc(C(=O)Nc2cccc(NC3=NN(c4ccccc4)C(=O)C3)c2)c1)OCCCC [(423)]
Abs.max., first of two maxima (subsidiary maximum): 430 nm
Abs.max., second of two maxima (absorption maximum): 530 nm

CCCCC(CC)COP(=O)(CCCOc1cccc(C(=O)Nc2cccc(C(=O)NC3=NN(c4c(C)cc(Cl)cc4Cl)C(=O)C3)c2)c1)OCC(CC)CCCC (stereo not drawn) [(269)]
Abs.max., first of two maxima (subsidiary maximum): 438 nm
Abs.max., second of two maxima (absorption maximum): 540 nm

CCCCOP(=O)(CCCC)Nc1cccc(NC(=O)c2cc(NC(=O)CC(=O)c3ccccc3)ccc2Cl)c1 (stereo not drawn) [(141)]
Abs.max. (single maximum): 438 nm

COc1ccc(C(=O)CC(=O)Nc2cc(C(=O)NCCCP(=O)(OC(C)C)OC(C)C)ccc2C(=O)NCCCP(=O)(OC(C)C)OC(C)C)cc1 [(131)]
Abs.max. (single maximum): 442 nm
